Results: US10167326B2, “Alpha-fetoprotein “ring and tail” peptides” (ALBANY MEDICAL COLLEGE, priority 2010, dated 2019)
“Also recorded” adds a separate entry of the source. Non-standard residues stand in square brackets, D forms with d. Residues, ends and D or L forms follow the SMILES beside them. Hyp = O=C(O)[C@@H]1C[C@@H](O)CN1

Experiments:
p53 = conditions: cited from earlier work
[1] = test system: T47D human breast cancer cells; assay: T47D cell proliferation assay in the presence of E2; type: cell-based; conditions: different concentrations in vitro (FIG. 7)
estrogen receptor = target: T1, estrogen receptor (Homo sapiens, UniProt P03372); conditions: cited from earlier work
T1 sequence (P03372 1-595): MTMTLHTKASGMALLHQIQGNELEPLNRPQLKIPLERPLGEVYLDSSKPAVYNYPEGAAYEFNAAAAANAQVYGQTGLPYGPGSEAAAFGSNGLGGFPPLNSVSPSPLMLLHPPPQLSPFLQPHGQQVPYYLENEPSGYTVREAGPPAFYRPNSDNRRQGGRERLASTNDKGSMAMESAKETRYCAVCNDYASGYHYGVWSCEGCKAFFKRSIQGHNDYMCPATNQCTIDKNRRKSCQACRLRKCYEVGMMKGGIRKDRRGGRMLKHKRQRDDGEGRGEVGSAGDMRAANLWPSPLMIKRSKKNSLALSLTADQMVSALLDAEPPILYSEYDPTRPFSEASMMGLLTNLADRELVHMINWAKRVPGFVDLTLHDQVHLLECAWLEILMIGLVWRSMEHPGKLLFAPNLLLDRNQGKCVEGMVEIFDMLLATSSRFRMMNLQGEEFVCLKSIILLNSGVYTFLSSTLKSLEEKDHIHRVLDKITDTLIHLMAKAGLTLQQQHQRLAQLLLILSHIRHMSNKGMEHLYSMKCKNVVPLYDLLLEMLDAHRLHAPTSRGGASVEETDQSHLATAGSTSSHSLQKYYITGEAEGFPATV

c-erb2 = conditions: after stimulation by E2 or EGF in MCF-7 cells; cited from earlier work
[2] = test system: T47D human breast cancer cells; assay: T47D cell proliferation assay in the presence of E2; type: cell-based
Method: Anticancer activity of the cyclic peptides was also evaluated using the T47D cell proliferation assay. T47D cells were cultured on collagen-IV coated 24-well plates and treated with each of above peptides in the presence of E2. Final peptide concentrations of each peptide were 10^−6 M and final E2 concentration was 1 nM. Values are reported as mean±SEM (n=6) of four independent experiments. […] One-way ANOVA followed by Tukey's multiple comparison test. p≤0.05.
(§1) A ‘tail’ was attached to a nine-amino acid ring and included 1 or 2 amino acids defined as hydrophilic or hydrophobic based on the nature of their side-chains. Tails comprising the following amino acid(s): serine (S), tyrosine (Y), […], glutamic acid (E), phenylalanine-serine (FS) and tyrosine-isoleucine (YI) represent hydrophilic tails and tails comprising the following amino acid(s), phenylalanine (F), isoleucine (I) and phenylalanine-isoleucine (FI) are hydrophobic tails. All peptides were administered at a dose of 1 μg/mouse intraperitoneally or 10 μg/mouse by oral gavage. Values are presented as mean±S.E. (n=5). In culture, T47D cells were treated with each peptide at a concentration of 1 μM. Values are presented as mean±S.E (n=6). […] Wilcoxon Rank Sum Test.
(§2) All peptides were administered at a dose of 1 μg/mouse intraperitoneally or 10 μg/mouse by oral gavage. Values are presented as mean±S.E (n=5). In culture, T47D cells were treated with each peptide at a concentration of 1 μM. Values are presented as mean±S.E (n=6). […] Wilcoxon Rank Sum Test.

p21Cip1 = conditions: cited from earlier work
[3] = test system: E2-stimulated immature mouse uterine growth; assay: immature mouse uterine growth assay (inhibition of E2-stimulated uterine growth); type: in vivo
Method: Four cyclic peptides of decreasing ring size (Table 1) were synthesized and were assessed for antiestrogenic activity using the immature mouse uterine assay. Negative control mice received saline alone. Positive control mice received E2 alone. AFPep was used as a positive control peptide and cyclic Scr was used as a peptide control. Mice were injected intraperitoneally (i.p.) with each of these peptides at a dose of 1 μg/mouse. One hour later mice received 0.5 ug 17β-estradiol (E2) i.p. Twenty-two hours later uteri were dissected, weighed, and normalized to body weight. The results are reported as mean±S.E (n=5) for four independent experiments.
as §1, §2
To evaluate peptide-induced inhibition by the peptide of the present invention of estrogen-stimulated proliferation of normal tissue, the immature mouse uterine growth assay was utilized. Briefly, 13-15 day-old Swiss/Webster female mice, 6-8 g in body weight, were distributed into treatment groups of 5 mice per group so that each group contained animals of the same range of body weight. The peptide of the invention was injected i.p., s.c., or p.o. into the mice. One hour later, estradiol (E2) or vehicle control for E2 was injected i.p. Twenty-two hours after the second injection, uteri were harvested, trimmed free of mesenteries, and immediately weighed. The uterine weights were normalized to mouse body weights to compensate for differences in body weight among litters of the same age. Experiments employed a minimum of five mice per group and the mean normalized uterine weight±SE for each group was calculated. Percent growth inhibition in a test group was calculated from normalized uterine wet weights as described below.
The ability to inhibit E2-stimulated growth of normal mouse uterus was used as a screening assay for biological activity of AFPep analogs. In general, inhibitory activity ≥20% is considered to be biologically significant. Each analog's inhibitory effect on E2-stimulated growth was compared to AFPep (a positive control) and to PGVGQ (SEQ ID NO: 51)(a negative control). PGVGQ (SEQ ID NO: 51 amino acids 478-482 of AFP) is a portion of the primary structure of AFP near to the anti-cancer active site of AFP and is comprised of amino acids (P, V, and G) that are important components of AFPep.

[4] = test system: estrogen receptor phosphorylation at serine-118; conditions: cited from earlier work

SMILES: CC(C)[C@@H]1NC(=O)[C@@H]2C[C@@H](O)CN2C(=O)[C@H]([C@@H](C)O)NC(=O)[C@H](CCCCN)NC(=O)[C@H](CCC(=O)O)NC(=O)[C@H](CC(N)=O)NC(=O)CNC(=O)[C@@H]2C[C@@H](O)CN2C(=O)[C@H](CC(N)=O)NC1=O [AFPep, cyclo[EKTOVNOGN], reference compound] (cyclo(EKT[Hyp]VN[Hyp]GN))
- serine-15 phosphorylation on p53 (p53): significantly increased
- inhibition of E2-stimulated T47D human breast cancer cell growth, concentration response profile [1]: inhibited E2-stimulated T47D cell growth up to a concentration of 10^−6M and then loss its effectiveness at higher concentrations
- binding to the E2-binding site of the estrogen receptor (estrogen receptor): does not bind
- transactivation of c-erb2 leading dephosphorylated ERK1/2 (c-erb2): prevent the transactivation of c-erb2
- Inhibition ± S.E, % T47D cell proliferation ([2]; peptide 1 μM, E2-stimulated, mean±S.E (n=6), * p<0.05 vs E2 alone): 51 ± 4* %
- anticancer activity of cyclic analogs of different ring size (T47D proliferation inhibition) ([2]; peptide 10^−6 M, E2 1 nM (FIG. 5B)): significantly different from the other analogs; also recorded: significantly better inhibition of E2-stimulated growth in vivo and in vitro than the other analogs
- nuclear p21Cip1 activation (p21Cip1): increases
- antiestrogenic activity of cyclic analogs of different ring size (uterine growth inhibition) ([3]; 1 μg/mouse i.p. (FIG. 5A)): significantly better inhibition of E2-stimulated growth in vivo and in vitro than the other analogs
- uterine growth inhibition dose response of AFPep combined with antagonist analog ([3]; combination of AFPep and ring and tail antagonist with disrupted pharmacophore and hydrophilic tail (FIG. 11, 12)): restored by addition of the antagonist analog; also recorded: can be overcome by using a combination of AFPep and an analog with a hydrophilic tail; also recorded: sigmoidal dose range curve
- inhibition of E2-stimulated uterine growth, dose response profile ([3]; over a number of doses (FIG. 6)): significantly inhibited E2-stimulated uterine growth to a dose of 10 μg and then loses its effectiveness at higher doses
- E2-induced estrogen receptor phosphorylation at serine-118 [4]: significantly inhibited
